Results published in ChEMBL document CHEMBL5126594, “Entry inhibition of hepatitis B virus using cyclosporin O derivatives with peptoid side chain incorporation” (Bioorg Med Chem, 2022).

Assays:
Hepatitis B virus [1] = assay: Antiviral activity against Hepatitis B virus infected in human HepG2 cells expressing NTCP assessed as inhibition of viral entry by measuring intracellular HBV DNA at 1 uM preincubated with compound for 2 hrs followed by viral infection and measured after 3 hrs by qPCR analysis relative to control; type: functional; conditions: time 5 hrs
Hepatitis B virus [2] = assay: Antiviral activity against Hepatitis B virus infected in human HepG2 cells expressing NTCP assessed as inhibition of viral entry by measuring intracellular HBV DNA preincubated with compound for 2 hrs followed by viral infection and measured after 3 hrs by qPCR analysis; type: functional, organism-based
[3] = Cytotoxicity against human HepG2 cells assessed as reduction in cell viability incubated for 24 hrs by MTS assay; type: toxicity, cell-based; conditions: read-out: LC50
hERG (KCNH2) [4] = target: T1, hERG (KCNH2) (Homo sapiens, UniProt Q12809); assay: Inhibition of hERG incubated for 2 hrs by fluorescence polarization based assay; type: toxicity
CYP1A2 = target: T2, CYP1A2 (Homo sapiens, UniProt P05177); assay: Inhibition of human CYP1A2 at 10 uM preincubated for 10 mins followed by NADPH addition and measured after 20 mins by luciferin reagent based luminescence analysis; type: ADME; conditions: time 30 min
T2 sequence (P05177 whole entry): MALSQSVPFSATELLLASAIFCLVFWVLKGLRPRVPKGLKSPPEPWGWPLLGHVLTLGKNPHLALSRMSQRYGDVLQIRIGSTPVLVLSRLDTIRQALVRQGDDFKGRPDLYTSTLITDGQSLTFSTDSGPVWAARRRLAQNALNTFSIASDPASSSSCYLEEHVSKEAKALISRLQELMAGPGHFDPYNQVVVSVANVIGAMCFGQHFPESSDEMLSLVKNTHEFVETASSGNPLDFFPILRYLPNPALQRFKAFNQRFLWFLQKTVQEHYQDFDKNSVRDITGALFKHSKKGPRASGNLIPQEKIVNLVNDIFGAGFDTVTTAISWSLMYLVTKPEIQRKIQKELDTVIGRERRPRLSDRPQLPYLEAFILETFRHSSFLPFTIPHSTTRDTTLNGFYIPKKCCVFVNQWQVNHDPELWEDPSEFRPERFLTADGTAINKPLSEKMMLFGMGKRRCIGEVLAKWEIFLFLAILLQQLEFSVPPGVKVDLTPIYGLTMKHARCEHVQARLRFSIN

CYP2C9 = CYP2C9 (Homo sapiens, UniProt P11712); assay: Inhibition of human CYP2C9 at 10 uM preincubated for 10 mins followed by NADPH addition and measured after 20 mins by luciferin reagent based luminescence analysis; type: ADME; conditions: time 30 min
CYP2C19 = CYP2C19 (Homo sapiens, UniProt P33261); assay: Inhibition of human CYP2C19 at 10 uM preincubated for 10 mins followed by NADPH addition and measured after 20 mins by luciferin reagent based luminescence analysis; type: ADME; conditions: time 30 min
CYP2D6 = CYP2D6 (Homo sapiens, UniProt P10635); assay: Inhibition of human CYP2D6 at 10 uM preincubated for 10 mins followed by NADPH addition and measured after 20 mins by luciferin reagent based luminescence analysis; type: ADME; conditions: time 30 min
CYP3A4 = CYP3A4 (Homo sapiens, UniProt P08684); assay: Inhibition of human CYP3A4 at 10 uM preincubated for 10 mins followed by NADPH addition and measured after 20 mins by luciferin reagent based luminescence analysis; type: ADME; conditions: time 30 min
hERG (KCNH2) [5] = target: T1, hERG (KCNH2); assay: in vitro
Description: Inhibition of hERG at 10 uM incubated for 2 hrs by fluorescence polarization based assay relative to control

T1 sequence (Q12809 whole entry): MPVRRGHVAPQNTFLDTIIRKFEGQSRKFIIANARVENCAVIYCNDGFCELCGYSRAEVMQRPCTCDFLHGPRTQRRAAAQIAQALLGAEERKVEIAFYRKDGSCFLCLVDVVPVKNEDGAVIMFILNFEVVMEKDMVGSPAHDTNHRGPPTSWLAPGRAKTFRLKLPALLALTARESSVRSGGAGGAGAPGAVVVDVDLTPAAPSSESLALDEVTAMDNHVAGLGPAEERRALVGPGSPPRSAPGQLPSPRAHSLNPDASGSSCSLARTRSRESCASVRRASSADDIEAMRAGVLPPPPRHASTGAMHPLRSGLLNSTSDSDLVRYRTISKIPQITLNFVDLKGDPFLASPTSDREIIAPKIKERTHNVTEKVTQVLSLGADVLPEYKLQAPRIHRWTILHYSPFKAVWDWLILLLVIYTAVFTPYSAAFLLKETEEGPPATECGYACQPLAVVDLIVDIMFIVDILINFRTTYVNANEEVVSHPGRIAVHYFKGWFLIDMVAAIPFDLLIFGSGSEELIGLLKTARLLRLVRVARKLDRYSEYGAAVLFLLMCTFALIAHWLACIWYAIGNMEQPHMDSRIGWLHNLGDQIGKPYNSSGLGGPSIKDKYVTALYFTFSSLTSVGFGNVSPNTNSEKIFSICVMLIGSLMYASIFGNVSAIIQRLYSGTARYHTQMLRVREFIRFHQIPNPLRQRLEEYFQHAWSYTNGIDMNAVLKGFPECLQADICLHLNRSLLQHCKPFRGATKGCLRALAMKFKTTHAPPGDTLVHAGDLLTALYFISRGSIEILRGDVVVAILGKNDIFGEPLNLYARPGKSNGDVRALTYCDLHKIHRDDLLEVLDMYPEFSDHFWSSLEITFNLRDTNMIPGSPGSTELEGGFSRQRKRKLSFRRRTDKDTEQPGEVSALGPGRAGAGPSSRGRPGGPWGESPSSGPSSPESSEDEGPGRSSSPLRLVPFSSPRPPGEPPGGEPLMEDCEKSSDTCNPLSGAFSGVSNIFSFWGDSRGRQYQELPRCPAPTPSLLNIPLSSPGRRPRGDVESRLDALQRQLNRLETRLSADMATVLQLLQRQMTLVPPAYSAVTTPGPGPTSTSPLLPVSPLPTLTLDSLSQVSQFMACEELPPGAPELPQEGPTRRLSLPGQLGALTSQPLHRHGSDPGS
Chain of CYP2C9 (P11712 whole entry): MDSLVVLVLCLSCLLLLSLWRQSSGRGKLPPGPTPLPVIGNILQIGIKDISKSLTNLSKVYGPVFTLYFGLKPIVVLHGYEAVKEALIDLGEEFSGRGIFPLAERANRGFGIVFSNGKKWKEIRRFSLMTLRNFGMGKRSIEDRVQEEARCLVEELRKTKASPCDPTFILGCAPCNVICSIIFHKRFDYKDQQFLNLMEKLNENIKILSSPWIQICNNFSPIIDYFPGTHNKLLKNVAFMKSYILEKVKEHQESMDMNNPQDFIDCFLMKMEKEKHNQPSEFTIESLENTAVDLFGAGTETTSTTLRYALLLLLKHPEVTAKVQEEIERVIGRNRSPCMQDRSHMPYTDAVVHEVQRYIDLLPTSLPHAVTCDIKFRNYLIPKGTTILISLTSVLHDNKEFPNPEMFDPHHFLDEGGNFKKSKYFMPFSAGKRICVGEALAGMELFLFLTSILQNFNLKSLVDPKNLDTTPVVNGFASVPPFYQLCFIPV
Chain of CYP3A4 (P08684 whole entry): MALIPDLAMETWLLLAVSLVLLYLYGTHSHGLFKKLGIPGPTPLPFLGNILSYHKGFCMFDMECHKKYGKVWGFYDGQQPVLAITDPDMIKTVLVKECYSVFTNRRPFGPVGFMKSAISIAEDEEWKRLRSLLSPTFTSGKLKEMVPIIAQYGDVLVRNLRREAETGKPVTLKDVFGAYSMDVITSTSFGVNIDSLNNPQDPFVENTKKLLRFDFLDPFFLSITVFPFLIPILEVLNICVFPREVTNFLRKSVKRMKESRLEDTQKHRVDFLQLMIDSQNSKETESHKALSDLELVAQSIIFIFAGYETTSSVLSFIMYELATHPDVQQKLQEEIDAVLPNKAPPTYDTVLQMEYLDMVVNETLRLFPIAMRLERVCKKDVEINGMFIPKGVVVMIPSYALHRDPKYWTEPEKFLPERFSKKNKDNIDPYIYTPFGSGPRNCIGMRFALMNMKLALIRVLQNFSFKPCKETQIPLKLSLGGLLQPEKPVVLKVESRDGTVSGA
Chain of CYP2C19 (P33261 whole entry): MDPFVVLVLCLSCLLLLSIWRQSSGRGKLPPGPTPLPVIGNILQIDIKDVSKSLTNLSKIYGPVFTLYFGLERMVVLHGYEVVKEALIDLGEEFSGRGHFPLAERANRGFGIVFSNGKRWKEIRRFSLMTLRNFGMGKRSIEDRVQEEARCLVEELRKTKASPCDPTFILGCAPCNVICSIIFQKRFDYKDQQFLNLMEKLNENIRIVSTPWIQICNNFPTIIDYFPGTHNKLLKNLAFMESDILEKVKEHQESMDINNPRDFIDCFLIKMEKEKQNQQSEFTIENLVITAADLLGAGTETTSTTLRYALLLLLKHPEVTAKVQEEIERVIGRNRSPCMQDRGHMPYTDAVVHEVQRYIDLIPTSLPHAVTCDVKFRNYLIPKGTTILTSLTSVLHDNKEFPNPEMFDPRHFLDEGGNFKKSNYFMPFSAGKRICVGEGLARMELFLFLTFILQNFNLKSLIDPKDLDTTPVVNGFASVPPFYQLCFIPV
Chain of CYP2D6 (P10635 whole entry): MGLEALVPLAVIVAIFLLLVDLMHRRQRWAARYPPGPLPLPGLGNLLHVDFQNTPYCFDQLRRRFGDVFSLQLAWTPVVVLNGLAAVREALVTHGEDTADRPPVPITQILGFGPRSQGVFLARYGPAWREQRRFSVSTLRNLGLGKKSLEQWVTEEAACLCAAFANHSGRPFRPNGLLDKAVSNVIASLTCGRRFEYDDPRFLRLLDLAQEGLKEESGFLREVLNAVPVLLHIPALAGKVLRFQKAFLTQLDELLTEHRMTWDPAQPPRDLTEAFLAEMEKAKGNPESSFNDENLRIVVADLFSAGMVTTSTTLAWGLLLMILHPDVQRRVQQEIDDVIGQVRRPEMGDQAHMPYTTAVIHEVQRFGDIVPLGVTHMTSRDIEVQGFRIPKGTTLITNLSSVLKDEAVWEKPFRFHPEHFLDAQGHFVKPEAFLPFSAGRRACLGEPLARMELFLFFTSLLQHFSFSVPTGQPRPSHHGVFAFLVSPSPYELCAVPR

For `CCC[C@@H]1NC(=O)[C@H](CC(C)C)N(C)C(=O)[C@H](CC(C)C)N(C)C(=O)CN(CCO)C(=O)[C@H](CC(C)C)N(C)C(=O)[C@@H](C)NC(=O)[C@@H](CCC(N)=O)NC(=O)[C@H](CC(C)C)N(C)C(=O)[C@H](C(C)C)NC(=O)[C@H](CC(C)C)N(C)C(=O)CN(C)C1=O`, which inhibition at 1 µM (Hepatitis B virus [1]) is on record?
The inhibition at 1 µM was 78%.

And the IC50 (Hepatitis B virus [2])?
The IC50 was 360 nM.

And the CC50 at 24 h [3]?
Its CC50 at 24 h is greater than 200 µM.

And the EC50 at 2 h (hERG (KCNH2) [4])?
Its EC50 at 2 h is greater than 10 µM.

What about the inhibition at 20 min, 10 µM (CYP1A2) of the same compound?
Its inhibition at 20 min, 10 µM is 8.4%.

What about the inhibition at 20 min, 10 µM (CYP2C9) of the same compound?
The inhibition at 20 min, 10 µM was 14.8%.

And the inhibition at 20 min, 10 µM (CYP2C19)?
The inhibition at 20 min, 10 µM was 29.4%.

And the inhibition at 20 min, 10 µM (CYP2D6)?
The inhibition at 20 min, 10 µM was 35.1%.

What about the inhibition at 20 min, 10 µM (CYP3A4) of the same compound?
The inhibition at 20 min, 10 µM was 35.5%.

And the inhibition at 2 h, 10 µM (hERG (KCNH2) [5])?
The inhibition at 2 h, 10 µM was 19.1%.
